Experimental data taken from publication PMC8371461 (Frontiers in Pharmacology, 2021).

Columns and labels:
[1] = biological target: T1, ABL1(H396P)-phosphorylated (Homo sapiens, UniProt P00519, H396P); test: kinome scan; format: binding; conditions: 10 µM
T1 construct: purchased DiscoverX (KINOMEscan)

[2] = biological target: T2, ADCK3 (Homo sapiens, UniProt Q8NI60); test: kinome scan; format: binding; conditions: 10 µM
T2 construct: purchased DiscoverX (KINOMEscan)

[3] = biological target: T3, CHEK1 (Homo sapiens, UniProt O14757); test: kinome scan; format: binding
T3 construct: purchased DiscoverX (KINOMEscan)

[4] = biological target: T4, CLK2 (Homo sapiens, UniProt P49760); test: kinome scan; format: binding; conditions: 10 µM
T4 construct: purchased DiscoverX (KINOMEscan)

[5] = biological target: T5, DRAK2 (Homo sapiens, UniProt O94768); test: kinome scan; format: binding; conditions: 10 µM
T5 construct: purchased DiscoverX (KINOMEscan)

[6] = biological target: T6, ERK5 (Homo sapiens, UniProt Q13164); test: kinome scan; format: binding; conditions: 10 µM
T6 construct: purchased DiscoverX (KINOMEscan)

[7] = biological target: T7, HIPK2 (Homo sapiens, UniProt Q9H2X6); test: kinome scan; format: binding; conditions: 10 µM
T7 construct: purchased DiscoverX (KINOMEscan)

[8] = biological target: T8, LATS1 (Homo sapiens, UniProt O95835); test: kinome scan; format: binding; conditions: 10 µM
T8 construct: purchased DiscoverX (KINOMEscan)

[9] = biological target: T9, MAP4K5 (Homo sapiens, UniProt Q9Y4K4); test: kinome scan; format: binding; conditions: 10 µM
T9 construct: purchased DiscoverX (KINOMEscan)

[10] = biological target: T10, MEK3 (Homo sapiens, UniProt P46734); test: kinome scan; format: binding; conditions: 10 µM
T10 construct: purchased DiscoverX (KINOMEscan)

[11] = biological target: T11, MET(M1250T) (Homo sapiens, UniProt P08581, M1250T); test: kinome scan; format: binding; conditions: 10 µM
T11 construct: purchased DiscoverX (KINOMEscan)

[12] = biological target: T12, PDGFRB (Homo sapiens, UniProt P09619); test: kinome scan; format: binding; conditions: 10 µM
T12 construct: purchased DiscoverX (KINOMEscan)

[13] = biological target: T13, PIP5K1A (Homo sapiens, UniProt Q99755); test: kinome scan; format: binding; conditions: 10 µM
T13 construct: purchased DiscoverX (KINOMEscan)

[14] = biological target: T14, PLK1 (Homo sapiens, UniProt P53350); test: kinome scan; format: binding; conditions: 10 µM
T14 construct: purchased DiscoverX (KINOMEscan)

[15] = biological target: T15, PLK4 (Homo sapiens, UniProt O00444); test: kinome scan; format: binding; conditions: 10 µM
T15 construct: purchased DiscoverX (KINOMEscan)

[16] = biological target: T16, PRKD1 (Homo sapiens, UniProt Q15139); test: kinome scan; format: binding; conditions: 10 µM
T16 construct: purchased DiscoverX (KINOMEscan)

[17] = biological target: T17, PYK2 (Homo sapiens, UniProt Q14289); test: kinome scan; format: binding; conditions: 10 µM
T17 construct: purchased DiscoverX (KINOMEscan)

[18] = biological target: T18, QSK (Homo sapiens, UniProt Q9Y2K2); test: kinome scan; format: binding; conditions: 10 µM
T18 construct: purchased DiscoverX (KINOMEscan)

[19] = biological target: T19, RET (Homo sapiens, UniProt P07949); test: kinome scan; format: binding; conditions: 10 µM
T19 construct: purchased DiscoverX (KINOMEscan)

[20] = biological target: T20, RET(M918T) (Homo sapiens, UniProt P07949, M918T); test: kinome scan; format: binding; conditions: 10 µM
T20 construct: purchased DiscoverX (KINOMEscan)

[21] = biological target: T21, RSK1(Kin.Dom.1-N-terminal) (Homo sapiens, UniProt Q15418); test: kinome scan; format: binding; conditions: 10 µM
T21 construct: RSK1(Kin.Dom.1-N-terminal); purchased DiscoverX (KINOMEscan)

[22] = biological target: T22, RSK4(Kin.Dom.1-N-terminal) (Homo sapiens, UniProt Q9UK32); test: kinome scan; format: binding; conditions: 10 µM
T22 construct: RSK4(Kin.Dom.1-N-terminal); purchased DiscoverX (KINOMEscan)

[23] = biological target: T23, YSK1 (Homo sapiens, UniProt O00506); test: kinome scan; format: binding; conditions: 10 µM
T23 construct: purchased DiscoverX (KINOMEscan)

[24] = biological target: Mitogen-activating protein kinase interacting Ser/Thr kinase (MNK2) (Homo sapiens, UniProt Q9HBH9); test: Dundee activity test; format: biochemical
Text: (§1) In silico inverse screening is a ligand-driven methodology aiming at identifying a specific target for a given ligand. […] Table 2 contains for each kinase the name and acronym, the PDB identifier of the best-ranked structure, the ranking position in percent, the heavy atom RMSD of the co-crystallized ligand as a control, and the experimental confirmation from the kinome scan by Ambit Biosciences (http://www.ambitbio.com/) performed at the University of Dundee according to a previously described procedure ([Bain et al., 2003]).

[25] = biological target: Proto-oncogen Ser/Thr kinase PIM1 (PIM1) (Homo sapiens, UniProt P11309); test: Dundee activity test; format: biochemical
Text: as §1

[26] = biological target: Abelson (Abl) (Homo sapiens, UniProt P00519); test: kinome scan; format: binding; set-up: T7 phage fusion (kinase-tagged phage); purchased DiscoverX (Ambit Biosciences); host or cells: BL21-derived E. coli (T7 phage); conditions: read-out: Kinome scan (% of control at 10 µM)
Description: The kinome scan analysis was performed using the DiscoverX platform (www.discoverx.com). Briefly, T7 kinase-tagged phage strains are grown in parallel in 24-well or 96-well blocks in a BL21-derived E. coli host for 90 min until lysis. Lysates are centrifuged at 6,000 x g and filtered with a 0.2 µm filter to remove cell debris. Streptavidin-coated magnetic beads are treated with biotinylated kinase ligands for 30 min at room temperature to generate the affinity resin. Bound beads are blocked with excess biotin and washed with blocking buffer (SeaBlock (Pierce), 1% BSA, 0.05% Tween 20, and 1 mM DTT) to remove unbound ligand and reduce nonspecific phage binding. […] The final concentration of test compound is 10 µM. Assay plates are incubated at room temperature with shaking for 1 h. Affinity beads are treated four times with washing buffer (1X PBS, 0.05% Tween 20, and 1 mM DTT) to remove unbound phage. […] Q RT PCR is used to measure the amount of phage in each eluate (which is proportional to the amount of kinase bound). […]
Hits are identified by an ultra-sensitive quantitative PCR detecting the specific DNA tag linked to each kinase (Supplementary Figure S2). The drug is used at a concentration of 10 µM and results are expressed as the percentage of signal (kinase PCR detection) with respect to DMSO control conditions. […]

T3 sequence (O14757 whole entry): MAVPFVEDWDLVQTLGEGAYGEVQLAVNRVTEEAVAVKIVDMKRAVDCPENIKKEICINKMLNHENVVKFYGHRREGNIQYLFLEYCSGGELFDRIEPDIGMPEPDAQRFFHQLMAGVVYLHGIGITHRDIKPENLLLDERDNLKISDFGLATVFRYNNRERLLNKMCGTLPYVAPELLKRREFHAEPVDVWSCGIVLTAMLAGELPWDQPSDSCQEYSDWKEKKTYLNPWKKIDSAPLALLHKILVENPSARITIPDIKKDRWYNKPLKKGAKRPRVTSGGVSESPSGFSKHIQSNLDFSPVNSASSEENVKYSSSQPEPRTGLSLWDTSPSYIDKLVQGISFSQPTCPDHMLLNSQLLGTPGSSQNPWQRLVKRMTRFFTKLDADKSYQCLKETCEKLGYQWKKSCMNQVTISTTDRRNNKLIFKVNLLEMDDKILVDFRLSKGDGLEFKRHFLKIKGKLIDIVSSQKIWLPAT
T15 sequence (O00444 whole entry): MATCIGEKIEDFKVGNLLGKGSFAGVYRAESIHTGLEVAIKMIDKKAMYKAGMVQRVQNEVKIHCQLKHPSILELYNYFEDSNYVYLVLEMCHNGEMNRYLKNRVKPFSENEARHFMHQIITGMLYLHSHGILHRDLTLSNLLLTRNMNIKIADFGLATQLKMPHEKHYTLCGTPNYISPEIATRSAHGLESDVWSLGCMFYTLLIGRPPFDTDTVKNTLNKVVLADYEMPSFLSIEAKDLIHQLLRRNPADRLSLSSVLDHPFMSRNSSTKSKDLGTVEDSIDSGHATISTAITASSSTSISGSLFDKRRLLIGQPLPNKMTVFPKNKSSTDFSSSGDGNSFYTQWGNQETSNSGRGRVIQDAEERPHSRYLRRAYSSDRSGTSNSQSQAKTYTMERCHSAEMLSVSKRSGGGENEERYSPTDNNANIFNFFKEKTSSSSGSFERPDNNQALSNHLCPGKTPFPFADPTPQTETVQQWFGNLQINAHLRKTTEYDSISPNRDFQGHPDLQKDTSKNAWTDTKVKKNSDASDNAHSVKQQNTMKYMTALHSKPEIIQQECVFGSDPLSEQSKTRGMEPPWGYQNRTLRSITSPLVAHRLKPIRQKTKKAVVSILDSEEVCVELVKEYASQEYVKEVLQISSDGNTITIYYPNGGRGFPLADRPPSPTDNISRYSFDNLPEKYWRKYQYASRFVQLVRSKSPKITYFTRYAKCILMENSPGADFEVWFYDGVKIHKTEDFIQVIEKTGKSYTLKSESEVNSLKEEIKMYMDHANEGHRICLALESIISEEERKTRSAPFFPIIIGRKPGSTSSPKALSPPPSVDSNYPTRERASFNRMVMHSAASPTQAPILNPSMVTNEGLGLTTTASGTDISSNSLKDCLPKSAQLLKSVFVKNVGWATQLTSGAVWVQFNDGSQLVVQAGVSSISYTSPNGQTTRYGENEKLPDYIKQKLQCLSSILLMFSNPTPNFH
T21 sequence (Q15418 62-391 limits assumed): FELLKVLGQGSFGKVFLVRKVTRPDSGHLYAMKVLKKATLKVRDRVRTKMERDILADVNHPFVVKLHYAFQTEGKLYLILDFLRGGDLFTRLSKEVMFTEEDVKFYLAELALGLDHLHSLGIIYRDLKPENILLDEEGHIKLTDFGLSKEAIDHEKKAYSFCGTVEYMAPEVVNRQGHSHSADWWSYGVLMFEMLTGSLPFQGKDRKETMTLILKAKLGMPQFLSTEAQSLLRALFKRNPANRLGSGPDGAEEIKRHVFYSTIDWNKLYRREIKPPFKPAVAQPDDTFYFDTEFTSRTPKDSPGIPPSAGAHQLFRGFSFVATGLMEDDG
T20 sequence (P07949 29-1114 M918T): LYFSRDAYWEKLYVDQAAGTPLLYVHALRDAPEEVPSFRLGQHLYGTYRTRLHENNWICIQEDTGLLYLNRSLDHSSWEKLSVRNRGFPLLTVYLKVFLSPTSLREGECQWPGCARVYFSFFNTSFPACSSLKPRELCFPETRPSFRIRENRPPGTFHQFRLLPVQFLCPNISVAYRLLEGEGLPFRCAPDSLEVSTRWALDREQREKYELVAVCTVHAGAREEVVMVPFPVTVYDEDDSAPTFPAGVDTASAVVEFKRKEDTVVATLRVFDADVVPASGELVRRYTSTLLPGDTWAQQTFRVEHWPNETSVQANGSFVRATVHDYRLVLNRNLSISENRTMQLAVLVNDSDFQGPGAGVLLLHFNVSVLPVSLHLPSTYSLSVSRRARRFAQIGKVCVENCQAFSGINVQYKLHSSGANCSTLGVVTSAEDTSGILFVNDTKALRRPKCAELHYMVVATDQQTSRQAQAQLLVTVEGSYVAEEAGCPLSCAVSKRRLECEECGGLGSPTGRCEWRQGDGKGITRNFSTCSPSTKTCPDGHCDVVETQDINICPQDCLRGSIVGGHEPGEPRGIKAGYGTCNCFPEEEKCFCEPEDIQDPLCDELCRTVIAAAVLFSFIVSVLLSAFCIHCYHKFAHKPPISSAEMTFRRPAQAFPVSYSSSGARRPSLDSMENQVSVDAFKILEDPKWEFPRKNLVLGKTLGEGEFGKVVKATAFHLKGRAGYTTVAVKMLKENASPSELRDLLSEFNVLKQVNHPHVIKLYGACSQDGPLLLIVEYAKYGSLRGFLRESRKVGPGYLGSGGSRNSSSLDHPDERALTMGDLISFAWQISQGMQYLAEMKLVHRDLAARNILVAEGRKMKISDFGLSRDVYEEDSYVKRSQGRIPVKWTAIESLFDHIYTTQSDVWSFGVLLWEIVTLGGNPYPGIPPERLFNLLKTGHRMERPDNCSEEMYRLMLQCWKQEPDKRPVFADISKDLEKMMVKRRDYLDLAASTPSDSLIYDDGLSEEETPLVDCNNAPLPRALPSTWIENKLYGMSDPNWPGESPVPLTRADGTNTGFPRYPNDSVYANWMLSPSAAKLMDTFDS
T11 sequence (P08581 25-1390 M1250T): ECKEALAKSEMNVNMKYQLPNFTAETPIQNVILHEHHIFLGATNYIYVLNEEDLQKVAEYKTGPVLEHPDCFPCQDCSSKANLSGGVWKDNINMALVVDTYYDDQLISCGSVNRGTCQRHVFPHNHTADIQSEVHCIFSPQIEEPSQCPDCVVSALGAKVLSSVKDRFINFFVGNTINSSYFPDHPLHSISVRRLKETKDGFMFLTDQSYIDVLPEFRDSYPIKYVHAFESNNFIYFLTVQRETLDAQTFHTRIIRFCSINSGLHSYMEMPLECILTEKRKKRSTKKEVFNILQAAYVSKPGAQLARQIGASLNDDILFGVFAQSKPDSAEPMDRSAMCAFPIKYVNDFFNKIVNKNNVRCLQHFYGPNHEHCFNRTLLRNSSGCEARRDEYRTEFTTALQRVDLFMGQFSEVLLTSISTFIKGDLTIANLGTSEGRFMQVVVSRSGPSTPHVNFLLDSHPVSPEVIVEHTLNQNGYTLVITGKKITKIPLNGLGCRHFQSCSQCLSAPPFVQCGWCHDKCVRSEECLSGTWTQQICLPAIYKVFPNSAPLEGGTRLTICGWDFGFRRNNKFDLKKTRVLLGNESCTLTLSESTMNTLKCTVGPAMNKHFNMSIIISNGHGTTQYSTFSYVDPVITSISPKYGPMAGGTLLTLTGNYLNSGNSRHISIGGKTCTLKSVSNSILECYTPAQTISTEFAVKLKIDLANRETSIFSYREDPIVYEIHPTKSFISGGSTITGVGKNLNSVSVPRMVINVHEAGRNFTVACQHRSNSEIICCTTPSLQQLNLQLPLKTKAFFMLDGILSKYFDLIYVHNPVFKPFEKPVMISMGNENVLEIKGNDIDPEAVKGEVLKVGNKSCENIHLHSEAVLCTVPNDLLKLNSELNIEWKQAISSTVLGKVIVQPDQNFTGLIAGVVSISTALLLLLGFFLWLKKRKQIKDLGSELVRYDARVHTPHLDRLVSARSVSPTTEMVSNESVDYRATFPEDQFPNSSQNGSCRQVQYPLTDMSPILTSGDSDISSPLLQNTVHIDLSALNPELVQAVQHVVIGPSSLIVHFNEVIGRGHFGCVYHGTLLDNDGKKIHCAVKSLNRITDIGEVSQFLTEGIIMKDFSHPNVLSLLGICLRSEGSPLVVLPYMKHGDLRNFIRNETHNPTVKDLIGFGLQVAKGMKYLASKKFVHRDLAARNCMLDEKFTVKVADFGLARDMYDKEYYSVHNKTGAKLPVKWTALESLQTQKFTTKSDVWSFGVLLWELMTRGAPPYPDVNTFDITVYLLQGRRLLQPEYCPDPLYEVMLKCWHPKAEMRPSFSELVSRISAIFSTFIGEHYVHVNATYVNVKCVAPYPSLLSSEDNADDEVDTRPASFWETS
T10 sequence (P46734 whole entry): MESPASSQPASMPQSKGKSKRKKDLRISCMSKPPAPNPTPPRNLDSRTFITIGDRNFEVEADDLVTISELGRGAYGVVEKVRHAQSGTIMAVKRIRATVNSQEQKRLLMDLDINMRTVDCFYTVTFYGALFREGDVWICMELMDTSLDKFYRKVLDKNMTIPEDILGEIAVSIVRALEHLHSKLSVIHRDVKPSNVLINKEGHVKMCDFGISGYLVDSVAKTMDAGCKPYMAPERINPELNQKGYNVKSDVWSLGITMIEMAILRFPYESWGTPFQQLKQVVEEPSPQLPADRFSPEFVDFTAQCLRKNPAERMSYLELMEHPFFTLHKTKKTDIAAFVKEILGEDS
T19 sequence (P07949 29-1114): as the sequence (P07949 29-1114 M918T) above, with T890M counted along it
Proto-oncogen Ser/Thr kinase PIM1 (PIM1), sequence (P11309 whole entry, species assumed): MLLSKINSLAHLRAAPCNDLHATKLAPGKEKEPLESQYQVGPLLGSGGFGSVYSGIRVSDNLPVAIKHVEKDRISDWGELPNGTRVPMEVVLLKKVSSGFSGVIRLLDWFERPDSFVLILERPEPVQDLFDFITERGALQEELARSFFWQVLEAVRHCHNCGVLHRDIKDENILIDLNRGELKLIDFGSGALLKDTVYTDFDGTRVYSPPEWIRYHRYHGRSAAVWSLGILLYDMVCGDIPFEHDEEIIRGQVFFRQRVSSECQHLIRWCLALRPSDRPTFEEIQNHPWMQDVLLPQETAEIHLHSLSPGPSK

For Nc1ccc(N=Nc2ccccc2)c(N)n1 [phenazopyridine, 2,6-diamino-3-(phenylazo)pyridine], which kinase inhibition [1] is on record?
The kinase inhibition was 77.

And the kinase inhibition [2]?
The kinase inhibition was 91.

And the kinase inhibition ([3]; CHEK1, 10 µM)?
The kinase inhibition was 100.

And the remaining binding at 10 µM ([3]; CHK1, read-out: Kinome scan (% of control at 10 µM))?
Its remaining binding at 10 µM is 100%.

What about the kinase inhibition [4] of the same compound?
Its kinase inhibition is 75.

What about the kinase inhibition [5] of the same compound?
The kinase inhibition was 100.

What about the kinase inhibition [6] of the same compound?
The kinase inhibition was 95.

And the kinase inhibition [7]?
The kinase inhibition was 89.

And the kinase inhibition [8]?
The kinase inhibition was 87.

What about the kinase inhibition [9] of the same compound?
The kinase inhibition was 100.

What about the kinase inhibition [10] of the same compound?
The kinase inhibition was 54.

And the kinase inhibition [11]?
The kinase inhibition was 83.

And the kinase inhibition [12]?
The kinase inhibition was 44.

And the kinase inhibition [13]?
The kinase inhibition was 56.

What about the “remaining binding (% of control)” value [14] of the same compound?
Its value is 79.

And the kinase inhibition [15]?
The kinase inhibition was 89.

What about the kinase inhibition [16] of the same compound?
The kinase inhibition was 100.

And the kinase inhibition [17]?
The kinase inhibition was 100.

And the kinase inhibition [18]?
The kinase inhibition was 94.

What about the kinase inhibition [19] of the same compound?
The kinase inhibition was 100.

And the kinase inhibition [20]?
Its kinase inhibition is 100.

And the kinase inhibition [21]?
Its kinase inhibition is 80.

What about the kinase inhibition [22] of the same compound?
The kinase inhibition was 86.

And the kinase inhibition [23]?
Its kinase inhibition is 96.

And the remaining activity at 10 µM [24]?
The remaining activity at 10 µM was 20%.

And the remaining activity at 10 µM [25]?
The remaining activity at 10 µM was 49%.

And the remaining binding at 10 µM [26]?
Its remaining binding at 10 µM is 48%.
